In the Kinase Knowledgebase extract (Sharma et al. 2016):

Biological target: MAPK14 (UniProt Q16539)
Assay: p38-alpha Inhibition
Settings: not given

Chain of MAPK14 (Q16539 whole entry, looked up): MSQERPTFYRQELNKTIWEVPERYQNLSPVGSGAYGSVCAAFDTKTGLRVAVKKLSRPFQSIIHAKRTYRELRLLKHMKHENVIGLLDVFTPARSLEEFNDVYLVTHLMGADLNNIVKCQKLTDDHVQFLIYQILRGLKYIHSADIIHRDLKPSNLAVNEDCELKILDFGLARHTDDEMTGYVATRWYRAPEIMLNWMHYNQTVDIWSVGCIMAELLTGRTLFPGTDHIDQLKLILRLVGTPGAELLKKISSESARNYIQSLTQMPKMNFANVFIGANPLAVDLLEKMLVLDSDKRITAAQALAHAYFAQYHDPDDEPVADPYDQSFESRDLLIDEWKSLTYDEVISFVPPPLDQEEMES

Structure (SMILES)	IC50 [nM]
Nc1ccc2nc(-c3ccccc3F)nc(Nc3ccncc3)c2c1	800
c1ccc(-c2nc(NCc3ccncc3)c3ccccc3n2)cc1	800
COc1cccc(Nc2nc(-c3ccccc3)nc3ccccc23)c1	800

Second part, the compound after the results:

IC50 [nM]	Structure (SMILES)
800	Cc1ccccc1-c1nc(Nc2ccncc2)c2ccccc2n1
800	Fc1ccc(-c2nc(Nc3ccncc3)c3ccccc3n2)cc1
800	Fc1ccccc1-c1nc(Nc2ccncc2)c2ccccc2n1
800	Brc1ccccc1-c1nc(Nc2ccncc2)c2ccccc2n1
800	c1ccc(-c2nc(Nc3ccncc3)c3ccccc3n2)cc1
800	Clc1ccccc1-c1nc(Nc2ccncc2)c2ccccc2n1

Same assay, conditions: concentration not given here

inhibition [%]	Structure (SMILES)
> 90	Nc1ccc2nc(-c3ccccc3F)nc(Nc3ccncc3)c2c1
> 90	CC(C)CNc1ccc2nc(-c3ccccc3F)nc(Nc3ccncc3)c2c1
> 90	Nc1ccc2c(Nc3ccncc3)nc(-c3ccccc3F)nc2c1
> 90	COc1ccc(CNc2ccc3nc(-c4ccccc4F)nc(Nc4ccncc4)c3c2)cc1
> 90	COc1cc2nc(-c3ccccc3Cl)nc(Nc3ccncc3)c2cc1OC
> 90	COc1cccc(CNc2ccc3c(Nc4ccncc4)nc(-c4ccc(F)cc4)nc3c2)c1
> 90	COc1ccc(C(=O)Nc2ccc3nc(-c4ccccc4F)nc(Nc4ccncc4)c3c2)cc1
> 90	Nc1ccc2c(Nc3ccncc3)nc(-c3ccc(F)cc3)nc2c1
> 90	COc1cccc(CNc2ccc3nc(-c4ccccc4F)nc(Nc4ccncc4)c3c2)c1
> 90	CSc1ccc(CNc2ccc3nc(-c4ccccc4F)nc(Nc4ccncc4)c3c2)cc1
> 90	O=[N+]([O-])c1ccc2nc(-c3ccccc3F)nc(Nc3ccncc3)c2c1
